pIC50: −log10 of the molar value.
target: T1, hITK enzyme (FLAG-tagged full-length hITK) (Homo sapiens, UniProt Q08881); assay: ITK inhibitory activity (HTRF kinase assay, biotinylated GST-SLP76 substrate); format: biochemical; conditions: IC50 calculated from the 2 test compound concentrations sandwiching 50% ITK inhibitory rate
T1 construct: strongly expressing FLAG-tagged full-length hITK in Sf9 cells; FLAG; made in house; host or cells: Sf9 insect cells (ITK); Escherichia coli (GST-SLP76 substrate)
T1 sequence (Q08881 1-620): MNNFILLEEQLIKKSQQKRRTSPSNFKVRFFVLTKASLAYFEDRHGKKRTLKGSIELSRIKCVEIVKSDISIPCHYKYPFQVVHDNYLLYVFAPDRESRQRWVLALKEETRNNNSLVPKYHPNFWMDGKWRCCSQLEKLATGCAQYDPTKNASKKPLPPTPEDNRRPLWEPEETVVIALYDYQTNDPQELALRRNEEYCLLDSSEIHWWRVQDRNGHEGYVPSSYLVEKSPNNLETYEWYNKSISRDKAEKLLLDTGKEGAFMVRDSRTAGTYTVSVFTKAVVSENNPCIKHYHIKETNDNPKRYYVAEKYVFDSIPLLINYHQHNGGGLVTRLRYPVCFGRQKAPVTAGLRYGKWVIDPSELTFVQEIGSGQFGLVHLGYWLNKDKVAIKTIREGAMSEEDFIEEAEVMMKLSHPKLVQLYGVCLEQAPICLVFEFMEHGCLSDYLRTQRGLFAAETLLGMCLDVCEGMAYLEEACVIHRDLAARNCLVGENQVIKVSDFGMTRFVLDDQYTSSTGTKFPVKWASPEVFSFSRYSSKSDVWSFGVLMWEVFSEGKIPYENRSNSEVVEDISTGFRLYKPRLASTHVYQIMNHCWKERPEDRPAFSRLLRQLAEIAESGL
Description: (1) Preparation of hITK Enzyme
hITK enzyme was prepared by strongly expressing FLAG-tagged full-length hITK in Sf9 cells, and purifying same by anti-FLAG antibody column.
(2) Preparation of biotinylated GST-SLP76
Biotinylated GST-SLP76 was prepared by strongly expressing GST-tagged SLP76 (aa95-175) in Escherichia coli, purifying same by glutathion sepharose column and biotinylating same.
(3) Preparation of Solution
(i) buffer for dilution: 20 mmol/L 3-(N-morpholino)propanesulfonic acid (pH 7.0) (DOJINDO LABORATORIES), 10 mmol/L magnesium chloride (Sigma-Aldrich Corporation), 1 mmol/L dithiothreitol (Nacalai Tesque, Inc.), 0.1% gelatin (Sigma-Aldrich Corporation)
(ii) substrate solution: 0.2 μg/mL biotinylated GST-SLP76, 100 μmol/L ATP (Sigma-Aldrich Corporation), prepared with buffer for dilution
(iii) test compound solution: test compound, 50% dimethyl sulfoxide (DMSO), prepared with buffer for dilution
(iv) enzyme solution: 50 ng/mL hITK enzyme, prepared with buffer for dilution
(v) control solution: solution after removal of test compound from the mixture of the above-mentioned (i), (ii) and (iii)
(vi) blank solution: solution after removal of ATP from the mixture of the above-mentioned (i), (ii) and (iii)
(vii) detection buffer: 0.1 μg/mL Anti-Phosphotyrosine (PT66)-Cryptate (Cisbio), 2.5 μg/mL streptavidin-binding XL665 (Cisbio), 50 mmol/L 4-(2-hydroxyethyl)-1-piperazineethanesulfonic acid (pH 7.4) (Nacalai Tesque, Inc.), 30 mmol/L EDTA (NipponGene), 0.1% TritonX (Sigma-Aldrich Corporation), 200 mmol/L potassium fluoride (Wako Pure Chemical Industries, Ltd.), 0.05% bovine serum albumin (Sigma-Aldrich Corporation) (4) Measurement of ITK Inhibitory Activity
A substrate solution (25 μL/well), a test compound solution (5 μL/well) and an enzyme solution (20 μL/well) were added into 96 well half-area white plate (plate, Corning Incorporated 3642) to start a kinase reaction. The plate was stood still at room temperature for 10 min. Then, a detection buffer (50 μL/well) was added to the plate. After 2 hr from the addition of the detection buffer, fluorescence intensity at 620 nm (excited at 337 nm), and fluorescence intensity at 665 nm ([…]) were measured by a fluorescence microplate reader.
The Ratio (fluorescence intensity at 665 nm/fluorescence intensity at 620 nm×10000) of each test compound was calculated from the measured fluorescence intensity. Simultaneously, the measurement was performed using a blank solution and a control solution, and % of control value of each test compound was calculated from the following formula. % of control=(Ratio of test compound−Ratio of blank)/(Ratio of control−Ratio of blank)×100 ITK inhibitory rate (%)=100−(% of control)
The IC50 value was calculated from the test compound concentrations at 2 points sandwiching 50% ITK inhibitory rate.
In the test for the compounds of Examples 380 and 381, the ATP concentration of the substrate solutions was 6 μmol/L.

| SMILES | pIC50 |
| --- | --- |
| CC(O)C(=O)N(C)c1ccc2cc(-c3n[nH]c4c3CCC(C)(C)C4)[nH]c2c1 (centres unmarked) [Example 46] | 8.30 |
| COCC(OC)C(=O)N(C)c1ccc2cc(-c3n[nH]c4c3CCC(C)(C)C4)[nH]c2c1 (centres unmarked) [Example 47] | 8.10 |
| COC(CO)C(=O)N(C)c1ccc2cc(-c3n[nH]c4c3CCC(C)(C)C4)[nH]c2c1 (centres unmarked) [Example 48] | 8.22 |
| CCC(OC)C(=O)N(C)c1ccc2cc(-c3n[nH]c4c3CCC(C)(C)C4)[nH]c2c1 (centres unmarked) [Example 50] | 8.40 |
| CN(C(=O)NCc1ccccc1)c1ccc2cc(-c3n[nH]c4c3CCC(C)(C)C4)[nH]c2c1 [Example 51] | 7.59 |
| COCC(O)C(=O)N(C)c1ccc2cc(-c3n[nH]c4c3CCC(C)(C)C4)[nH]c2c1 (centres unmarked) [Example 53] | 8.10 |
| CN(C(N)=O)c1ccc2cc(-c3n[nH]c4c3CCC(C)(C)C4)[nH]c2c1 [Example 54] | 7.74 |
| CN(C(=O)C(=O)c1ccccc1)c1ccc2cc(-c3n[nH]c4c3CCC(C)(C)C4)[nH]c2c1 [Example 57] | 7.77 |
| COCC(C)C(=O)N(C)c1ccc2cc(-c3n[nH]c4c3CCC(C)(C)C4)[nH]c2c1 (centres unmarked) [Example 58] | 8.22 |
| Cc1cc(C(=O)N(C)c2ccc3cc(-c4n[nH]c5c4CCC(C)(C)C5)[nH]c3c2)no1 [Example 59] | 8.15 |
| CN(C(=O)C1CCOCC1)c1ccc2cc(-c3n[nH]c4c3CCC(C)(C)C4)[nH]c2c1 [Example 60] | 8.30 |
| CC(CO)C(=O)N(C)c1ccc2cc(-c3n[nH]c4c3CCC(C)(C)C4)[nH]c2c1 (centres unmarked) [Example 61] | 8.22 |
| COCCC(=O)N(C)c1ccc2cc(-c3n[nH]c4c3CCC(C)(C)C4)[nH]c2c1 [Example 62] | 8.40 |
| CN(C(=O)CCO)c1ccc2cc(-c3n[nH]c4c3CCC(C)(C)C4)[nH]c2c1 [Example 63] | 8.22 |
| CC(=O)N1CCC(C(=O)N(C)c2ccc3cc(-c4n[nH]c5c4CCC(C)(C)C5)[nH]c3c2)CC1 [Example 64] | 8.22 |
| CN1CCC(C(=O)N(C)c2ccc3cc(-c4n[nH]c5c4CCC(C)(C)C5)[nH]c3c2)CC1 [Example 65] | 7.26 |
| CC(C)C(O)C(=O)N(C)c1ccc2cc(-c3n[nH]c4c3CCC(C)(C)C4)[nH]c2c1 (centres unmarked) [Example 67] | 8.40 |
| CN(C(=O)C(O)c1ccccc1)c1ccc2cc(-c3n[nH]c4c3CCC(C)(C)C4)[nH]c2c1 (centres unmarked) [Example 68] | 8.15 |

| SMILES | pIC50 |
| --- | --- |
| CN(C(=O)CC(C)(C)O)c1ccc2cc(-c3n[nH]c4c3CCC(C)(C)C4)[nH]c2c1 [Example 69] | 8.40 |
| CN(C(=O)CC1CCCCC1)c1ccc2cc(-c3n[nH]c4c3CCC(C)(C)C4)[nH]c2c1 [Example 72] | 8.05 |
| COC1CCC(C(=O)N(C)c2ccc3cc(-c4n[nH]c5c4CCC(C)(C)C5)[nH]c3c2)CC1 (centres unmarked) [Example 74] | 8.40 |
| CN(C(=O)C(C)(C)COCc1ccccc1)c1ccc2cc(-c3n[nH]c4c3CCC(C)(C)C4)[nH]c2c1 [Example 75] | 7.47 |
| CN(C(=O)C(C)(C)CO)c1ccc2cc(-c3n[nH]c4c3CCC(C)(C)C4)[nH]c2c1 [Example 76] | 8.40 |
| CN(C(=O)[C@H](O)C1CCCCC1)c1ccc2cc(-c3n[nH]c4c3CCC(C)(C)C4)[nH]c2c1 [Example 77] | 8.22 |
| CN(C(=O)[C@@H](O)C1CCCCC1)c1ccc2cc(-c3n[nH]c4c3CCC(C)(C)C4)[nH]c2c1 [Example 78] | 8.15 |
| CN(C(=O)CN1CCCCC1)c1ccc2cc(-c3n[nH]c4c3CCC(C)(C)C4)[nH]c2c1 [Example 79] | 7.89 |
| COC1CCN(CC(=O)N(C)c2ccc3cc(-c4n[nH]c5c4CCC(C)(C)C5)[nH]c3c2)CC1 [Example 81] | 8.10 |
| CO[C@H]1CC[C@H](C(=O)N(C)c2ccc3cc(-c4n[nH]c5c4CCC(C)(C)C5)[nH]c3c2)CC1 [Example 82] | 8.15 |
| CO[C@H]1CC[C@@H](C(=O)N(C)c2ccc3cc(-c4n[nH]c5c4CCC(C)(C)C5)[nH]c3c2)CC1 [Example 85] | 8.40 |
| CN(C(=O)CC1CCCC1)c1ccc2cc(-c3n[nH]c4c3CCC(C)(C)C4)[nH]c2c1 [Example 92] | 8.00 |
| CN(C(=O)CCC1CCCCC1)c1ccc2cc(-c3n[nH]c4c3CCC(C)(C)C4)[nH]c2c1 [Example 93] | 7.32 |
| CN(C(=O)CC1CCOCC1)c1ccc2cc(-c3n[nH]c4c3CCC(C)(C)C4)[nH]c2c1 [Example 94] | 8.40 |
| CC(C(=O)N(C)c1ccc2cc(-c3n[nH]c4c3CCC(C)(C)C4)[nH]c2c1)C1CCCCC1 (centres unmarked) [Example 97] | 7.70 |
| COC1CCCC(C(=O)N(C)c2ccc3cc(-c4n[nH]c5c4CCC(C)(C)C5)[nH]c3c2)C1 (centres unmarked) [Example 99] | 7.59 |
| COC1CCCC(C(=O)N(C)c2ccc3cc(-c4n[nH]c5c4CCC(C)(C)C5)[nH]c3c2)C1 (centres unmarked) [Example 100] | 8.30 |

Compounds with a higher pIC50, results first:

| pIC50 | SMILES |
| --- | --- |
| 8.52 | CCC(O)C(=O)N(C)c1ccc2cc(-c3n[nH]c4c3CCC(C)(C)C4)[nH]c2c1 (centres unmarked) [Example 49] |
| > 8.52 | CN(C(=O)C1CCCO1)c1ccc2cc(-c3n[nH]c4c3CCC(C)(C)C4)[nH]c2c1 (centres unmarked) [Example 52] |
| > 8.52 | CCCOCC(=O)N(C)c1ccc2cc(-c3n[nH]c4c3CCC(C)(C)C4)[nH]c2c1 [Example 55] |
| > 8.52 | CC(C)OCC(=O)N(C)c1ccc2cc(-c3n[nH]c4c3CCC(C)(C)C4)[nH]c2c1 [Example 56] |
| 8.52 | CN(C(=O)C1CCOC1)c1ccc2cc(-c3n[nH]c4c3CCC(C)(C)C4)[nH]c2c1 (centres unmarked) [Example 66] |
| 8.52 | CCC(=O)N(C)c1ccc2cc(-c3n[nH]c4c3CCC(C)(C)C4)[nH]c2c1 [Example 70] |
| > 8.52 | CN(C(=O)CC1CCCO1)c1ccc2cc(-c3n[nH]c4c3CCC(C)(C)C4)[nH]c2c1 (centres unmarked) [Example 71] |
| > 8.52 | CN(C(=O)COc1ccncc1)c1ccc2cc(-c3n[nH]c4c3CCC(C)(C)C4)[nH]c2c1 [Example 73] |
| 8.52 | CN(C(=O)CN1CCOCC1)c1ccc2cc(-c3n[nH]c4c3CCC(C)(C)C4)[nH]c2c1 [Example 80] |
| > 8.52 | CN(C(=O)CN1CCCC1=O)c1ccc2cc(-c3n[nH]c4c3CCC(C)(C)C4)[nH]c2c1 [Example 83] |
| > 8.52 | CN(c1ccc2cc(-c3n[nH]c4c3CCC(C)(C)C4)[nH]c2c1)C(=O)[C@H]1CC[C@@H](O)CC1 [Example 84] |
| > 8.52 | CN(C(=O)COc1cccnc1)c1ccc2cc(-c3n[nH]c4c3CCC(C)(C)C4)[nH]c2c1 [Example 86] |
| > 8.52 | CN(C(=O)COC1CCOC1)c1ccc2cc(-c3n[nH]c4c3CCC(C)(C)C4)[nH]c2c1 (centres unmarked) [Example 87] |
| 8.52 | CN(C(=O)COC1CCOCC1)c1ccc2cc(-c3n[nH]c4c3CCC(C)(C)C4)[nH]c2c1 [Example 88] |
| > 8.52 | CN(C(=O)Cn1ccnc1)c1ccc2cc(-c3n[nH]c4c3CCC(C)(C)C4)[nH]c2c1 [Example 89] |
| 8.52 | CN(C(=O)C(O)C1CCOCC1)c1ccc2cc(-c3n[nH]c4c3CCC(C)(C)C4)[nH]c2c1 (centres unmarked) [Example 95] |
| 8.52 | CN(C(=O)C(O)C1CCCOC1)c1ccc2cc(-c3n[nH]c4c3CCC(C)(C)C4)[nH]c2c1 (centres unmarked) [Example 96] |
| 8.52 | CC(C(=O)N(C)c1ccc2cc(-c3n[nH]c4c3CCC(C)(C)C4)[nH]c2c1)C1CCOCC1 (centres unmarked) [Example 98] |
